Patent publication US8153787B2 (priority 2005, dated 2012)
Converted amounts (≈) assume the structure as drawn. Read-outs that look alike come from different tables or passages of the source.

What was measured:
[1] = system: Varicella-Zoster Virus (VZV); assay: microbe, parasite or virus in culture; format: cell-based; settings: Human alphaherpesvirus 3, HEL
[2] = system: Human Cytomegalovirus (HCMV); assay: microbe, parasite or virus in culture; format: cell-based
Vaccinia virus [3] = assay: organism not typed; format: cell-based; settings: HEL
Cowpox virus (Brighton) = assay: microbe, parasite or virus in culture; format: cell-based; settings: Cowpox virus, HEL, read-out: EC50 Cowpox virus Brighton
Orf virus (NZ2) = assay: microbe, parasite or virus in culture; format: cell-based; settings: Orf virus, HEL, read-out: EC50 Orf virus NZ2
[4] = system: primate polyomavirus (SV40); assay: microbe, parasite or virus in culture; format: cell-based, simian polyomavirus SV40; settings: for EC50: Polyomavirus sp., BSC-1, in Primates
murine polyomavirus = assay: microbe, parasite or virus in culture; format: cell-based; settings: for EC50: Alphapolyomavirus muris, UC1, UC1B
HSB-2 cells = settings: human
MOLT-3 cells = settings: human
in vitro [5] = settings: human
in vitro [6] = settings: African green monkey
in vitro [7] = settings: mouse
in vitro [8] = settings: human; remark: listed apart in the source
Vaccinia virus [9] = assay: microbe, parasite or virus in culture; format: cell-based; settings: Orthopoxvirus vaccinia, read-out: EC50 vaccinia virus
in vitro [10] = settings: human; remark: listed apart in the source
[11] = system: herpes simplex virus type 1 (HSV-1); assay: microbe, parasite or virus in culture; format: cell-based; settings: Human alphaherpesvirus 1, HEL, read-out: EC50 HSV-1 (Kos strain)
[12] = system: herpes simplex virus type 2 (HSV-2); assay: microbe, parasite or virus in culture; format: cell-based; settings: Human alphaherpesvirus 2, HEL, read-out: EC50 HSV-2 (G strain)
[13] = system: Vaccinia virus (Western Reserve) and recombinant viruses harboring the A314T, A684V or A314T+A684V mutations; format: cell-based
[14] = system: Molluscum contagiosum virus (MCV) clinical isolates; assay: microbe, parasite or virus in culture; format: cell-based; settings: Keratinocyte
[15] = system: vaccinia virus (Lederle strain); assay: microbe, parasite or virus in culture; format: cell-based; settings: Orthopoxvirus vaccinia, HEL
HSV-1 (Kos strain) = assay: microbe, parasite or virus in culture; format: cell-based, Herpes simplex virus type 1; settings: Human alphaherpesvirus 1, HEL
[16] = read-out: EC50 VZV 07/1 strain (HEL cells)
[17] = read-out: EC50 VZV OKA strain (HEL cells)
[18] = Human betaherpesvirus 5, AD169, HEL, read-out: EC50 HCMV AD-169 strain (HEL cells)
[19] = Human betaherpesvirus 5, HEL, read-out: EC50 HCMV Davis strain (HEL cells)
[20] = read-out: EC50 Vaccinia Virus Lister
[21] = Orthopoxvirus vaccinia, read-out: EC50 Vaccinia Virus Copenhagen
[22] = Orthopoxvirus vaccinia, read-out: EC50 Vaccinia Virus Lederle
[23] = Orthopoxvirus vaccinia, read-out: EC50 Vaccinia Virus WR
[24] = read-out: antiviral activity (EC50) SV40 PML-1 strain EK
[25] = read-out: antiviral activity (EC50) SV40 PML-2 strain DAR
[26] = read-out: antiviral activity (EC50) SV40 strain A2895
[27] = read-out: antiviral activity (EC50) 2PTA2
[28] = read-out: antiviral activity (EC50) MN/RDE Toronto
[29] = read-out: antiviral activity (EC50) LID-1
[30] = read-out: antiviral activity (EC50) PTA

**Q.** What does the source list for `NC(=NC(=O)NC[C@@H](CO)OCP(=O)(O)O)NC=O.[Na]` [Compound 3a, Sodium 3-formyl-2-{[(2S)-3-hydroxy-2-(phosphono-methoxy)propyl]carbamoyl}guanidine]?
**A.** EC50 [1, 16]: 0.046 µg/mL; EC50 [1, 17]: 0.042 µg/mL; EC50 [2, 18]: 0.1 µg/mL; EC50 [2, 19]: 0.12 µg/mL; EC50 (Vaccinia virus [3]; [20]): 7.61 µg/mL; EC50 (Vaccinia virus [3]; [21]): 5.84 µg/mL; EC50 (Vaccinia virus [3]; [22]): 7.97 µg/mL; EC50 (Vaccinia virus [3]; [23]): 6.34 µg/mL; EC50 (Cowpox virus (Brighton)): 12.6 µg/mL; EC50 (Orf virus (NZ2)): 0.37 µg/mL; selectivity index SV40 PML-1 strain EK [4]: >20; selectivity index SV40 PML-2 strain DAR [4]: >24; selectivity index SV40 strain A2895 [4]: >34; EC50 [4, 24]: 10 µg/mL; EC50 [4, 25]: 8.24 µg/mL; EC50 [4, 26]: 5.92 µg/mL; selectivity index 2PTA2 (murine polyomavirus): >13; selectivity index MN/RDE Toronto (murine polyomavirus): >26; EC50 (murine polyomavirus; [27]): 14.8 µg/mL; EC50 (murine polyomavirus; [28]): 7.57 µg/mL; Toxicity MCC (microscop) (HEL cells; HEL cells, microscopy): >100 µg/mL; Toxicity MCC (microscopy), HSB-2 cells (HSB-2 cells): >200 µg/mL; Toxicity MCC (microscopy), MOLT-3 cells (MOLT-3 cells): 200 µg/mL; CC50 at 3 days (in vitro [5]): > 50 µg/mL; CC50 (in vitro [6]): > 200 µg/mL; CC50 (in vitro [7]): > 200 µg/mL; CC50 (in vitro [8]): > 100 µg/mL

**Q.** For `NC1=NC(=O)N(C[C@@H](CO)OCP(=O)(O)O)CN1` [5,6-dihydro derivative of HPMP-5-azaC, (S)-1-[3-Hydroxy-2-(phosphonomethoxy)propyl]-5,6-dihydro-5-azacytosine], which EC50 (Vaccinia virus [9]) is on record?
**A.** 38 µg/mL (≈ 135 µM)

**Q.** What about the CC50 (in vitro [10]) of the same compound?
**A.** 120 µg/mL (≈ 425 µM)

**Q.** Which results are given for `Nc1ncn(C[C@H]2COP(=O)(O)CO2)c(=O)n1` [Compound 11, 1-{[(5S)-2-Hydroxy-2-oxido-1,4,2-dioxaphosphinan-5-yl]methyl}-5-azacytosine]?
**A.** EC50 [1, 16]: 0.05 µg/mL (≈ 0.191 µM); EC50 [1, 17]: 0.08 µg/mL (≈ 0.305 µM); EC50 [2, 18]: 0.093 µg/mL (≈ 0.355 µM); EC50 [2, 19]: 0.061 µg/mL (≈ 0.233 µM); EC50 (Vaccinia virus [3]; [20]): 1.38 µg/mL (≈ 5.26 µM); EC50 (Vaccinia virus [3]; [21]): 1.76 µg/mL (≈ 6.71 µM); EC50 (Vaccinia virus [3]; [22]): 3.1 µg/mL (≈ 11.8 µM); EC50 (Vaccinia virus [3]; [23]): 2.08 µg/mL (≈ 7.93 µM); EC50 (Cowpox virus (Brighton)): 5.64 µg/mL (≈ 21.5 µM); EC50 (Orf virus (NZ2)): 0.09 µg/mL (≈ 0.343 µM); EC50 [11]: 0.017 µg/mL (≈ 0.0648 µM); EC50 [12]: 0.58 µg/mL (≈ 2.21 µM); selectivity index SV40 PML-1 strain EK [4]: 8; selectivity index SV40 PML-2 strain DAR [4]: 7; selectivity index SV40 strain A2895 [4]: 8; EC50 [4, 24]: 4.6 µg/mL (≈ 17.5 µM); EC50 [4, 25]: 5.05 µg/mL (≈ 19.3 µM); EC50 [4, 26]: 4.39 µg/mL (≈ 16.7 µM); selectivity index 2PTA2 (murine polyomavirus): 13; selectivity index LID-1 (murine polyomavirus): 7; selectivity index MN/RDE Toronto (murine polyomavirus): 17; selectivity index PTA (murine polyomavirus): 7; EC50 (murine polyomavirus; [27]): 4.39 µg/mL (≈ 16.7 µM); EC50 (murine polyomavirus; [29]): 8.05 µg/mL (≈ 30.7 µM); EC50 (murine polyomavirus; [28]): 3.43 µg/mL (≈ 13.1 µM); EC50 (murine polyomavirus; [30]): 8.59 µg/mL (≈ 32.8 µM); CC50 (in vitro [5]): > 50 µg/mL; CC50 (in vitro [6]): 36.4 µg/mL (≈ 139 µM); CC50 (in vitro [7]): 58.4 µg/mL (≈ 223 µM)

**Q.** Which EC50 [1, 17] does the source give for `CCCCCCCCCCCCCCCCCCOP1(=O)CO[C@@H](Cn2cnc(N)nc2=O)CO1` (stereo partly drawn) [Compound 15, octadecyl ester of 1-{[(5S)-2-hydroxy-2-oxido-1,4,2-dioxaphosphinan-5-yl]methyl}-5-azacytosine] here?
**A.** 0.063 µg/mL (≈ 0.122 µM)

**Q.** What about the EC50 [2, 18] of the same compound?
**A.** 0.0037 µg/mL (≈ 0.00719 µM)

**Q.** And the EC50 [2, 19]?
**A.** 0.0014 µg/mL (≈ 0.00272 µM)

**Q.** And the CC50 (in vitro [5])?
**A.** > 100 µg/mL

**Q.** Which results are given for `Nc1ccn(C[C@@H](CO)OCP(=O)(O)O)c(=O)n1` [HPMPC, (S)-1-(3-hydroxy-2-phosphonylmethoxypropyl)cytosine, reference compound]?
**A.** EC50 [1, 16]: 0.05 µg/mL (≈ 0.179 µM); EC50 [1, 17]: 0.2 µg/mL (≈ 0.716 µM); EC50 [2, 18]: 0.2 µg/mL (≈ 0.716 µM); EC50 [2, 19]: 0.3 µg/mL (≈ 1.07 µM); EC50 (Vaccinia virus [3]; [20]): 2.45 µg/mL (≈ 8.78 µM); EC50 (Vaccinia virus [3]; [21]): 4.35 µg/mL (≈ 15.6 µM); EC50 (Vaccinia virus [3]; [22]): 2.43 µg/mL (≈ 8.7 µM); EC50 (Vaccinia virus [3]; [23]): 5.82 µg/mL (≈ 20.8 µM); EC50 (Cowpox virus (Brighton)): 8.43 µg/mL (≈ 30.2 µM); EC50 (Orf virus (NZ2)): 0.2 µg/mL (≈ 0.716 µM); EC50 Vaccinia virus (Western Reserve) wild-type [13]: 3.1 µg/mL (≈ 11.1 µM); EC50 recombinant vaccinia virus 314 + 684 [13]: 39.5 µg/mL; EC50 recombinant vaccinia virus 684 [13]: 14.8 µg/mL; EC50 recombinant vaccinia virus A314T [13]: 22.2 µg/mL; EC50 [11]: 0.16 µg/mL (≈ 0.573 µM); EC50 [12]: 0.54 µg/mL (≈ 1.93 µM); EC50 [4, 24]: 5.56 µg/mL (≈ 19.9 µM); EC50 [4, 25]: 5.87 µg/mL (≈ 21 µM); EC50 [4, 26]: 4.72 µg/mL (≈ 16.9 µM); EC50 (murine polyomavirus; [27]): 5.78 µg/mL (≈ 20.7 µM); EC50 (murine polyomavirus; [29]): 5.89 µg/mL (≈ 21.1 µM); EC50 (murine polyomavirus; [28]): 2.76 µg/mL (≈ 9.89 µM); EC50 (murine polyomavirus; [30]): 6.54 µg/mL (≈ 23.4 µM); EC50 ([14]; read-out: EC50 MCV 06/02): 0.76 µg/mL (≈ 2.72 µM); EC50 ([14]; read-out: EC50 MCV 06/03): 0.55 µg/mL (≈ 1.97 µM); EC50 ([14]; read-out: EC50 MCV 06/04): 0.55 µg/mL (≈ 1.97 µM); EC50 ([14]; read-out: EC50 MCV 06/06): 0.6 µg/mL (≈ 2.15 µM); EC50 ([15]; 2 h, read-out: EC50 Vaccinia (Lederle strain), Treatment from 2 h till end of experiment): 3.98 µg/mL (≈ 14.3 µM); EC50 ([15]; read-out: EC50 Vaccinia (Lederle strain), Pretreatment (−16 hours)): 5 µg/mL (≈ 17.9 µM); EC50 ([15]; read-out: EC50 Vaccinia (Lederle strain), Treatment 2-4 hours): 20 µg/mL (≈ 71.6 µM); EC50 ([15]; read-out: EC50 Vaccinia (Lederle strain), Treatment 2-6 hours): 9.06 µg/mL (≈ 32.5 µM); EC50 ([15]; read-out: EC50 Vaccinia (Lederle strain), Treatment 2-8 hours): 10 µg/mL (≈ 35.8 µM); EC50 (HSV-1 (Kos strain); 2 h, read-out: EC50 HSV-1 (Kos strain), Treatment from 2 h till end of experiment): 0.43 µg/mL (≈ 1.54 µM); EC50 (HSV-1 (Kos strain); read-out: EC50 HSV-1 (Kos strain), Pretreatment (−16 hours)): 1 µg/mL (≈ 3.58 µM); EC50 (HSV-1 (Kos strain); read-out: EC50 HSV-1 (Kos strain), Treatment 2-4 hours): 2.51 µg/mL (≈ 8.99 µM); EC50 (HSV-1 (Kos strain); read-out: EC50 HSV-1 (Kos strain), Treatment 2-6 hours): 1.1 µg/mL (≈ 3.94 µM); EC50 (HSV-1 (Kos strain); read-out: EC50 HSV-1 (Kos strain), Treatment 2-8 hours): 1 µg/mL (≈ 3.58 µM); Toxicity MCC (microscop) (HEL cells; human): >79 µg/mL; Toxicity MCC (microscopy), HSB-2 cells (HSB-2 cells): 19 µg/mL; Toxicity MCC (microscopy), MOLT-3 cells (MOLT-3 cells): 32 µg/mL; CC50 (in vitro [5]): 68.6 µg/mL (≈ 246 µM); CC50 (in vitro [6]): 79.4 µg/mL (≈ 284 µM); CC50 (in vitro [7]): 84.3 µg/mL (≈ 302 µM); CC50 (in vitro [8]): > 79 µg/mL
